Assay results published in patent US20240158446A1, “CYCLIC COMPOUND HAVING SELECTIVE INHIBITORY ACTION ON KRAS OVER HRAS AND NRAS” (CHUGAI SEIYAKU KABUSHIKI KAISHA, priority 2021, published 2024).

Tests used:
[1] = biological target: GDP-bound HRAS wild-type protein (Homo sapiens, UniProt P01112); assay: Binding to HRAS by surface plasmon resonance (SPR), Single Cycle Kinetics; conditions: for HRAS/KRAS (ratio of KD value with respect to GDP-bound HRAS wild-type protein to KD value with respect to KRAS): SPR KD ratio HRAS/KRAS, class symbols
GDP-bound HRAS wild-type protein, sequence (P01112 whole entry): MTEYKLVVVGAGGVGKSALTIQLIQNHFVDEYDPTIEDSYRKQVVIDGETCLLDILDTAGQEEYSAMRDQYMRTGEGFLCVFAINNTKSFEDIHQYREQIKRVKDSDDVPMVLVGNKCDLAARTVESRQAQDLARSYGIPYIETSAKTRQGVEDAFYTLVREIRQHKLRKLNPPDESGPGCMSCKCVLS

[2] = biological target: GDP-bound NRAS wild-type protein (Homo sapiens, UniProt P01111); assay: Binding to NRAS by surface plasmon resonance (SPR), Single Cycle Kinetics; conditions: for NRAS/KRAS (ratio of KD value with respect to GDP-bound NRAS wild-type protein to KD value with respect to KRAS): SPR KD ratio NRAS/KRAS, class symbols
GDP-bound NRAS wild-type protein, sequence (P01111 whole entry): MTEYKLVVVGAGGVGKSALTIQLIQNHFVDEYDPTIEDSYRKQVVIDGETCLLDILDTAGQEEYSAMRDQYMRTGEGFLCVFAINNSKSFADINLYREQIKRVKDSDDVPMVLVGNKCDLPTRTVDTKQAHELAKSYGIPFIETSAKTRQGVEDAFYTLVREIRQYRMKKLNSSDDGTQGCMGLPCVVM

[3] = SPR, GDP-bound HRAS wild-type protein vs GDP-bound KRAS wild-type protein
[4] = SPR, GDP-bound NRAS wild-type protein vs GDP-bound KRAS wild-type protein

| Structure (SMILES) | HRAS/KRAS (ratio of KD value with respect to GDP-bound HRAS wild-type protein to KD value with respect to KRAS) [1] | NRAS/KRAS (ratio of KD value with respect to GDP-bound NRAS wild-type protein to KD value with respect to KRAS) [2] | HRAS/KRAS (ratio of KD value for HRAS to KD value for KRAS) [1, 3] | NRAS/KRAS (ratio of KD value for NRAS to KD value for KRAS) [2, 4] | other results |
| --- | --- | --- | --- | --- | --- |
| CCC[C@H]1C(=O)N[C@@H]([C@@H](C)CC)C(=O)N(C)CC(=O)N(C)[C@H]2C/C=C\CCN(C2=O)[C@@H](Cc2ccc(C(F)(F)F)cc2)C(=O)N(C)CC(=O)N[C@@H](CCc2ccc3c(C)c(C)n(C)c3c2)C(=O)N2C[C@H](OCC)C[C@H]2C(=O)NC2(CC(C)(C)C2)C(=O)N(C)[C@@H](C(CC)CC)C(=O)N(C)[C@H](C(=O)N(C)C)CC(=O)N1C [PP2904] | A (a compound having 10 or more and less than 20 is denoted as A) | AA (a compound having 20 or more is denoted as AA) | – | – | – |
| CCO[C@@H]1C[C@H]2C(=O)NC3(CC(C)(C)C3)C(=O)N(C)[C@@H](C(CC)CC)C(=O)N(C)[C@H](C(=O)N(C)C)CC(=O)N(C)[C@@H](CC3CC3)C(=O)N[C@@H]([C@@H](C)CC)C(=O)N(C)CC(=O)N(C)[C@H]3C/C=C\CCN(C3=O)[C@@H](Cc3ccc(C)cc3)C(=O)N(C)CC(=O)N[C@@H](CCc3ccc(C(F)(F)F)c(Cl)c3)C(=O)N2C1 [PP2142] | – | – | A (a compound having 10 or more and less than 20 is denoted as A) | AA (a compound having 20 or more is denoted as AA) | – |
| CCO[C@@H]1C[C@H]2C(=O)NC3(CCC3)C(=O)N(C)[C@@H](C3CCCC3)C(=O)N(C)[C@H](C(=O)N(C)C)CC(=O)N(C)[C@@H](CC3CCCC3)C(=O)N[C@@H]([C@@H](C)CC)C(=O)N(C)CC(=O)N(C)[C@H]3C/C=C\CCN(C3=O)[C@@H](Cc3ccc(C)cc3)C(=O)N(C)CC(=O)N[C@@H](CCc3ccc(C(F)(F)F)c(CC)c3)C(=O)N2C1 [PP2672] | B (a compound having 3 or more and less than 10 is denoted as B) | B (a compound having 3 or more and less than 10 is denoted as B) | – | – | – |
| CCC[C@@H]1C[C@H]2C(=O)NC3(CCC3)C(=O)N(C)[C@@H](C3CCCC3)C(=O)N(C)[C@H](C(=O)N(C)C)CC(=O)N(C)[C@@H](CC)C(=O)N[C@@H]([C@@H](C)CC)C(=O)N(C)CC(=O)N(C)[C@H]3C/C=C\CCN(C3=O)[C@@H](Cc3ccc(C)cc3)C(=O)N(C)CC(=O)N[C@@H](CCc3cc(F)c(C(F)(F)F)c(F)c3)C(=O)N2C1 [PP2233] | – | – | A (a compound having 10 or more and less than 20 is denoted as A) | A (a compound having 10 or more and less than 20 is denoted as A) | – |
| CCO[C@@H]1C[C@H]2C(=O)NC3(CCC3)C(=O)N(C)[C@@H](C3CCCC3)C(=O)N(C)[C@H](C(=O)N(C)C)CC(=O)N(C)[C@@H](CC)C(=O)N[C@@H]([C@@H](C)CC)C(=O)N(C)CC(=O)N(C)[C@H]3CCCCCN(C3=O)[C@@H](Cc3ccc4ccsc4c3)C(=O)N(C)CC(=O)N[C@@H](CCc3cc(F)c(C(F)(F)F)c(F)c3)C(=O)N2C1 [PP0910] | – | – | B (a compound having 3 or more and less than 10 is denoted as B) | B (a compound having 3 or more and less than 10 is denoted as B) | – |
| CCC[C@H]1C(=O)N[C@@H]([C@@H](C)CC)C(=O)N(C2CC2)CC(=O)N(C)[C@H]2C/C=C\CCN(C2=O)[C@@H](Cc2ccc(C)cc2)C(=O)N(C)CC(=O)N[C@@H](CCc2cc(C)c(C(F)F)c(C)c2)C(=O)N2C[C@H](OCC)C[C@H]2C(=O)NC2(CC(C)(C)C2)C(=O)N(C)[C@@H](C2CCCC2)C(=O)N(C)[C@H](C(=O)N(C)C)CC(=O)N1C [PP2873] | A (a compound having 10 or more and less than 20 is denoted as A) | A (a compound having 10 or more and less than 20 is denoted as A) | – | – | – |
| CCO[C@@H]1C[C@H]2C(=O)NC3(CCC3)C(=O)N(C)[C@@H](C3CCCC3)C(=O)N(C)[C@H](C(=O)N3CCOCC3)CC(=O)N(C)[C@@H](CC(C)(C)C)C(=O)N[C@@H]([C@@H](C)CC)C(=O)N(C)CC(=O)N(C)[C@H]3CCCCCN(C3=O)[C@@H](Cc3ccc(C(F)(F)F)cc3)C(=O)N(C)CC(=O)N[C@@H](CCc3cc(F)c(C(F)(F)F)c(F)c3)C(=O)N2C1 [PP0684] | – | – | – | – | HRAS/KRAS (ratio of KD value with respect to HRAS to KD value with respect to KRAS) [1, 3]: B (a compound having 3 or more and less than 10 is denoted as B); NRAS/KRAS (ratio of KD value with respect to NRAS to KD value with respect to KRAS) [2, 4]: B (a compound having 3 or more and less than 10 is denoted as B) |
| CC[C@H](C)[C@@H]1NC(=O)[C@H](CC(C)C)N(C)C(=O)C[C@@H](C(=O)N2CCOCC2)N(C)C(=O)[C@H](C2CCCC2)N(C)C(=O)C2(CCC2)NC(=O)[C@@H]2[C@@H](OCCC(F)(F)F)CCN2C(=O)[C@H](CCc2cc(F)c(C(F)(F)F)c(F)c2)NC(=O)CN(C)C(=O)[C@H](Cc2ccc(C(F)(F)F)cc2)N2CCCCC[C@@H](C2=O)N(C)C(=O)CN(C)C1=O [PP1008] | – | – | B (a compound having 3 or more and less than 10 is denoted as B) | A (a compound having 10 or more and less than 20 is denoted as A) | – |
| CCC[C@H]1C(=O)N[C@@H]([C@@H](C)CC)C(=O)N(C)CC(=O)N(C)[C@H]2C/C=C\CCN(C2=O)[C@@H](Cc2ccc(C(F)(F)F)cc2)C(=O)N(C)CC(=O)N[C@@H](CCc2cc(C)c(C(F)F)c(C)c2)C(=O)N2C[C@H](OCC)C[C@H]2C(=O)NC2(CC(C)(C)C2)C(=O)N(C)[C@@H](C2CCCC2)C(=O)N(C)[C@H](C(=O)N(C)C)CC(=O)N1C [PP2857] | A (a compound having 10 or more and less than 20 is denoted as A) | A (a compound having 10 or more and less than 20 is denoted as A) | – | – | – |
| CCO[C@@H]1C[C@H]2C(=O)NC3(CC(C)(C)C3)C(=O)N(C)[C@@H](C(CC)CC)C(=O)N(C)[C@H](C(=O)N(C)C)CC(=O)N(C)[C@@H](CC)C(=O)N[C@@H]([C@@H](C)CC)C(=O)N(C)CC(=O)N(C)[C@H]3C/C=C\CCN(C3=O)[C@@H](Cc3ccc(C(F)(F)F)cc3)C(=O)N(C)CC(=O)N[C@@H](CCc3ccc(Cl)c(Cl)c3)C(=O)N2C1 [PP2179] | – | – | A (a compound having 10 or more and less than 20 is denoted as A) | AA (a compound having 20 or more is denoted as AA) | – |
| CCC[C@H]1C(=O)N[C@@H]([C@@H](C)CC)C(=O)N(C)CC(=O)N(C)[C@H]2C/C=C\CCN(C2=O)[C@@H](Cc2ccc(C(F)(F)F)cc2)C(=O)N(C)CC(=O)N[C@@H](CCc2cc(C)c(C(F)F)c(Cl)c2)C(=O)N2C[C@H](OCC)C[C@H]2C(=O)NC2(CC(C)(C)C2)C(=O)N(C)[C@@H](C2CCCC2)C(=O)N(C)[C@H](C(=O)N(C)C)CC(=O)N1C [PP2866] | A (a compound having 10 or more and less than 20 is denoted as A) | A (a compound having 10 or more and less than 20 is denoted as A) | – | – | – |
| CCCOC[C@H]1C(=O)N[C@@H]([C@@H](C)CC)C(=O)N(C)CC(=O)N(C)[C@H]2C/C=C\CCN(C2=O)[C@@H](Cc2ccc(C)cc2)C(=O)N(C)CC(=O)N[C@@H](CCc2ccc(C(F)(F)F)c(OC)c2)C(=O)N2C[C@H](OCC)C[C@H]2C(=O)N(C)C2(CCC2)C(=O)N(C)[C@@H](C2CCCC2)C(=O)N(C)[C@H](C(=O)N(C)C)CC(=O)N1C [PP2326] | – | – | B (a compound having 3 or more and less than 10 is denoted as B) | A (a compound having 10 or more and less than 20 is denoted as A) | – |
| CCC[C@H]1C(=O)N[C@@H]([C@@H](C)CC)C(=O)N(C)CC(=O)N(C)[C@H]2C/C=C\CCN(C2=O)[C@@H](Cc2ccc(C(F)(F)F)cc2)C(=O)N(C)CC(=O)N[C@@H](CCc2cc(C)c(C(F)F)c(F)c2)C(=O)N2C[C@H](OCC)C[C@H]2C(=O)NC2(CC(C)(C)C2)C(=O)N(C)[C@@H](C2CCCC2)C(=O)N(C)[C@H](C(=O)N(C)C)CC(=O)N1C [PP2860] | A (a compound having 10 or more and less than 20 is denoted as A) | A (a compound having 10 or more and less than 20 is denoted as A) | – | – | – |
| CC[C@H](C)[C@@H]1NC(=O)[C@H](CC(C)C)N(C)C(=O)C[C@@H](C(=O)N2CCOCC2)N(C)C(=O)[C@H](C2CCCC2)N(C)C(=O)C2(CCCC2)NC(=O)[C@@H]2CCCN2C(=O)[C@H](CCc2ccc(C(F)(F)F)c(Cl)c2)NC(=O)CN(C)C(=O)[C@H](Cc2ccc(C(F)(F)F)cc2)N2CCCCC[C@@H](C2=O)N(C)C(=O)CN(C)C1=O (stereo in doubt) [PP0319] | – | – | B (a compound having 3 or more and less than 10 is denoted as B) | B (a compound having 3 or more and less than 10 is denoted as B) | – |
| CCO[C@@H]1C[C@H]2C(=O)NC3(CCC3)C(=O)N(C)[C@@H](C3CCCC3)C(=O)N(C)[C@H](C(=O)N(C)CC)CC(=O)N(C)[C@@H](CC(C)C)C(=O)N[C@@H]([C@@H](C)CC)C(=O)N(C)CC(=O)N(C)[C@H]3C/C=C\CCN(C3=O)[C@@H](Cc3ccc(C(F)(F)F)cc3)C(=O)N(C)CC(=O)N[C@@H](CCc3ccc(Cl)c(Cl)c3)C(=O)N2C1 [PP2845] | A (a compound having 10 or more and less than 20 is denoted as A) | AA (a compound having 20 or more is denoted as AA) | – | – | – |
| CC[C@H](C)[C@@H]1NC(=O)[C@H](CC(C)C)N(C)C(=O)C[C@@H](C(=O)N2CCOCC2)N(C)C(=O)[C@H](C2CCCC2)N(C)C(=O)C2(CCC2)NC(=O)[C@@H]2C[C@@H](OCC3CC3)CN2C(=O)[C@H](CCc2cc(F)c(C(F)(F)F)c(F)c2)NC(=O)CN(C)C(=O)[C@H](Cc2ccc(C(F)(F)F)cc2)N2CCCC[C@@H](C2=O)N(C)C(=O)CN(C)C1=O [PP1014] | – | – | C (A compound having a KD ratio of 0.1 or more and less than 3 is denoted as C) | C (A compound having a KD ratio of 0.1 or more and less than 3 is denoted as C) | – |
